Experimental data: patent US8604034B2, “Substituted imidazo[1,2-α]pyrrolo[1,2-d]pyrazines for treating respiratory syncytial virus (RSV) infections” (Biota Scientific Management Pty Ltd., priority 2010, dated 2013)
Where two headings read alike, the source gives them in different places.

System: RSV A2
Test: RSV antiviral cytopathic effect (CPE) assay
Type: cell-based
Details: human respiratory syncytial virus, HEp-2, 120 h, HEp2 cells infected with RSV A2 (moi ~0.01), 5 days, MTT readout
Procedure: Compounds of the invention were tested for their antiviral activity against respiratory syncytial virus. Cytopathic effect (CPE) assays were performed essentially as described in the literature (see for example Watanabe et al, 1994, J. Virological Methods, 48:257). Serial dilutions of the test compounds were made in 96 well plates. HEp2 cells (1.0×10^4 cells/well) were infected with RSV at a low multiplicity of infection (e.g. RSV A2 at an moi of ˜0.01) and added to plates to assess antiviral activity. Uninfected HEp2 cells were used to assess compound cytotoxicity. Assays were incubated for 5 days at 37° C. in a 5% CO2 atmosphere. The extent of CPE was determined via metabolism of the vital dye 3-(4,5-dimethylthiaxol-2-yl)-2,5-diphenyltetrazolium bromide (MTT). MTT (1 mg/ml) was added to each well and plates incubated for 2 hours incubation at 37° C. Wells were aspirated, iso-propanol (200 μL) was added and absorbance values read at 540/650 nm. Compound concentrations that inhibited CPE by 50% (EC50) and developed cytotoxicity (CC50) were calculated using non-linear regression analysis.
Representative mean EC50 values obtained are also provided. In the inventors' experience, replicate EC50 values usually fall within three standard deviations of the mean.

[1] = read-out: Activity Range (RSV A2 EC50)
[2] = mean EC50, read-out: RSV A2 EC50

SMILES | EC50 [1] [nM] | EC50 [2] [nM]
O=C1c2cc(Br)cn2CC2(c3ccc(F)cc3)NCCN12 (stereo not drawn) [Compound 85] | > 10000 | 
Cc1ccc(C23Cn4cc(Br)cc4C(=O)N2CCN3)cc1 (stereo not drawn) [Compound 86] | > 10000 | 
COc1ccc(C23Cn4cc(-c5ccnn5C)cc4C(=O)N2CCN3C(=O)c2conc2C)cc1 (stereo not drawn) [Compound 87] | 50 to 99 | 500
COc1ccc(C23Cn4cc(-c5cnn(C(C)C)c5)cc4C(=O)N2CCN3C(=O)c2conc2C)cc1 (stereo not drawn) [Compound 88] | 50 to 99 | 65
COc1ccc(C23Cn4cc(C#N)cc4C(=O)N2CCN3C(=O)c2conc2C)cc1 (stereo not drawn) [Compound 89, 10a-(4-methoxyphenyl)-1-[(3-methyl-1,2-oxazol-4-yl)carbonyl]-5-oxo-2,3,10,10a-tetrahydro-1H,5H-imidazo[1,2-a]pyrrolo[1,2-d]pyrazine-7-carbonitrile] | 500 to 10000 | 1600
COc1ccc(C23Cn4cc(-c5cncnc5)cc4C(=O)N2CCN3C(=O)c2conc2C)cc1 (stereo not drawn) [Compound 90] | 500 to 10000 | 1300
COc1ccc(C23Cn4cc(-c5cn(C)nc5C)cc4C(=O)N2CCN3C(=O)c2conc2C)cc1 (stereo not drawn) [Compound 91] | 100 to 499 | 140
COc1ccc(C23Cn4cc(-c5cnccc5C)cc4C(=O)N2CCN3C(=O)c2conc2C)cc1 (stereo not drawn) [Compound 92] | > 10000 | 
Cc1ccc(C23Cn4cc(-c5ccccn5)cc4C(=O)N2CCN3C(=O)c2conc2C)cc1 (stereo not drawn) [Compound 93, 1-[(3-methyl-1,2-oxazol-4-yl)carbonyl]-10a-(4-methylphenyl)-7-(pyridin-2-yl)-2,3,10,10a-tetrahydro-1H,5H-imidazo[1,2-a]pyrrolo[1,2-d]pyrazin-5-one] | < 49 | 8.2
Cc1nocc1C(=O)N1CCN2C(=O)c3cc(-c4cccnc4)cn3CC12c1ccc(CO)cc1 (stereo not drawn) [Compound 95, 10a-[4-(hydroxymethyl)phenyl]-1-[(3-methyl-1,2-oxazol-4-yl)carbonyl]-7-(pyridin-3-yl)-2,3,10,10a-tetrahydro-1H,5H-imidazo[1,2-a]pyrrolo[1,2-d]pyrazin-5-one] | 100 to 499 | 160
Cc1nocc1C(=O)N1CCN2C(=O)c3ccc(-c4cnn(C)c4)n3CC12c1ccc(F)cc1 (stereo not drawn) [Compound 96] | 100 to 499 | 150
Cc1nocc1C(=O)N1CCN2C(=O)c3ccc(-c4cccnc4)n3CC12c1ccc(F)cc1 (stereo not drawn) [Compound 97] | 100 to 499 | 460
Cc1nocc1C(=O)N1CCN2C(=O)c3cc(-c4cccnc4)cn3CC12c1ccc(F)cc1 (stereo not drawn) [Compound 98] | 50 to 99 | 69
Cc1nocc1C(=O)N1CCN2C(=O)c3ccc(-c4ccncc4)n3CC12c1ccc(F)cc1 (stereo not drawn) [Compound 99] | 100 to 499 | 190
COc1ccc(C23Cn4cc(-c5ccc(C(=O)O)cc5)cc4C(=O)N2CCN3C(=O)c2conc2C)cc1 (stereo not drawn) [Compound 100] | 500 to 10000 | 8000
Cc1nocc1C(=O)N1CCN2C(=O)c3cccn3CC12c1cccnc1 (stereo not drawn) [Compound 101, 1-[(3-methyl-1,2-oxazol-4-yl)carbonyl]-10a-(pyridin-3-yl)-2,3,10,10a-tetrahydro-1H,5H-imidazo[1,2-a]pyrrolo[1,2-d]pyrazin-5-one] | 500 to 10000 | 730
O=C1c2cccn2CC2(c3cccnc3)NCCN12 (stereo not drawn) [Compound 102, 10a-(pyridin-3-yl)-2,3,10,10a-tetrahydro-1H,5H-imidazo[1,2-a]pyrrolo[1,2-d]pyrazin-5-one] | > 10000 | 
Cc1nocc1C(=O)N1CCN2C(=O)c3cccn3CC12c1ccccn1 (stereo not drawn) [Compound 103, 1-[(3-methyl-1,2-oxazol-4-yl)carbonyl]-10a-(pyridin-2-yl)-2,3,10,10a-tetrahydro-1H,5H-imidazo[1,2-a]pyrrolo[1,2-d]pyrazin-5-one] | 100 to 499 | 380
Cc1ccc(C23Cn4cccc4C(=O)N2CCN3C(=O)c2conc2C)nc1 (stereo not drawn) [Compound 104] | < 49 | 27
Cc1nocc1C(=O)N1CCN2C(=O)c3cccn3CC12c1ccc(C(F)(F)F)nc1 (stereo not drawn) [Compound 105] | 100 to 499 | 130
